In publication PMC9267968, “Continued Structural Exploration of Sulfocoumarin as Selective Inhibitor of Tumor-Associated Human Carbonic Anhydrases IX and XII” (Molecules, 2022):
Where “and” joins values, the source holds several entries; their conditions need not be identical. Equal entries are not always repeated. Where two headings read alike, the source gives them in different places.

Columns and labels:
hCA I = biological target: T1, hCA I (Homo sapiens, UniProt P00915); assay: stopped-flow CO2 hydrase assay, hCA I inhibition; type: biochemical; conditions: 6 h incubation of enzyme and inhibitor; mean from 3 different assays, errors 5-10%; read-out: KI (nM) CA I
T1 construct: made in house
Method: (§1) For this reason, we herein report a 6 h incubation time instead.
(§2) An Applied Photophysics stopped-flow instrument was used for assaying the CA catalyzed CO2 hydration activity. […] The uncatalyzed rates were determined in the same manner and subtracted from the total observed rates. Stock solutions of inhibitor (0.1 mM) were prepared in distilled–deionized water and dilutions up to 0.01 nM were done thereafter with the assay buffer. Inhibitor and enzyme solutions were preincubated together for 6h at room temperature prior to assay, in order to allow for the formation of the E-I complex. The inhibition constants were obtained by non-linear least-squares methods using PRISM 3 and the Cheng–Prusoff equation and represent the mean from at least three different determinations. […] All CA isoforms were recombinant ones obtained in-house.

hCA IX = biological target: T2, hCA IX (Homo sapiens, UniProt Q16790); assay: stopped-flow CO2 hydrase assay, hCA IX inhibition; type: biochemical; conditions: 6 h incubation of enzyme and inhibitor; mean from 3 different assays, errors 5-10%; read-out: KI (nM) CA IX
T2 construct: made in house
Method: as §1, §2

hCA XII = biological target: T3, hCA XII (Homo sapiens, UniProt O43570); assay: biochemical
T3 construct: made in house
Method: as §1, §2

hCA II = biological target: T4, hCA II (Homo sapiens, UniProt P00918); assay: stopped-flow CO2 hydrase assay, hCA II inhibition; type: biochemical; conditions: 6 h incubation of enzyme and inhibitor; mean from 3 different assays, errors 5-10%; read-out: KI (nM) CA II
T4 construct: made in house
Method: as §1, §2

[1] = 6 h incubation of enzyme and inhibitor, mean from 3 different assays, errors 5-10%, read-out: KI (nM) CA XII

T1 sequence (P00915 whole entry): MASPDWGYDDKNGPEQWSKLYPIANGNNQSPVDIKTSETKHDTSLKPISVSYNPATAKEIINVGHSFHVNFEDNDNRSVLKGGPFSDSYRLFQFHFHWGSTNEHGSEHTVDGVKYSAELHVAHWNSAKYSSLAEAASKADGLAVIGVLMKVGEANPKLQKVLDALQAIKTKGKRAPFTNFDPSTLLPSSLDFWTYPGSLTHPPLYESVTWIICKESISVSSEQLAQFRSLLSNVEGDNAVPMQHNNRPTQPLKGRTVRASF
T3 sequence (O43570 25-354): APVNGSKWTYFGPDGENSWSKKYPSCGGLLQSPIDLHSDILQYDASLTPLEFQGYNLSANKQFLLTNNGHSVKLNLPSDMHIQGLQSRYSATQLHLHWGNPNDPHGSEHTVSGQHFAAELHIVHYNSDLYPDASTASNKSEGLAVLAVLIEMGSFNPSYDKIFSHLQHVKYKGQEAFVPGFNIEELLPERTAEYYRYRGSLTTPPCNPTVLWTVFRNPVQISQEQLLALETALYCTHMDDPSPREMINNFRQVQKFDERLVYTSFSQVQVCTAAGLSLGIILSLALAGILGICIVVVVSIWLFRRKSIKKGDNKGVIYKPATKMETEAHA

Compound | Ki (hCA I) | Ki (hCA IX) | Ki (hCA XII; [1]) | melting point | Ki (hCA II) | Ki (hCA XII)
O=S1(=O)C=Cc2ccc(O)cc2O1 [Compound 11, 7-Hydroxybenzo[e][1,2]oxathiine 2,2-dioxide] | 16500 nM | 55.8 nM | 42.5 nM | 157 to 159 °C | – | –
O=S1(=O)Oc2cc(OCc3ccccc3)ccc2-c2ccccc21 [Compound 27, 3-(benzyloxy)dibenzo[c,e][1,2]oxathiine 6,6-dioxide] | > 100000 nM | 681 nM | 911 nM | 232 to 235 °C | > 100000 nM | –
CC1=CS(=O)(=O)Oc2cc(OCc3cccc([N+](=O)[O-])c3)ccc21 [Compound 22, 7-((3-nitrobenzyl)oxy)-4-methylbenzo[e][1,2]oxathiine 2,2-dioxide] | > 100000 nM | 61.4 nM | 136 nM | 239 to 241 °C | > 100000 nM | –
COc1ccc2c(c1)OS(=O)(=O)C(C(=O)Nc1cccc(Br)c1)=C2 [Compound 45, N-(3-bromophenyl)-7-methoxybenzo[e][1,2]oxathiine-3-carboxamide 2,2-dioxide] | > 100000 nM | 64400 nM | – | 218 to 220 °C | > 100000 nM | 76500 nM
O=C(Nc1ccccc1)C1=Cc2ccccc2OS1(=O)=O [Compound 38, N-phenylbenzo[e][1,2]oxathiine-3-carboxamide 2,2-dioxide] | > 100000 nM | 3290 nM | – | 192 to 195 °C | > 100000 nM | 2300 nM
CCOC(=O)C1=Cc2ccccc2OS1(=O)=O [Compound 34, ethyl benzo[e][1,2]oxathiine-3-carboxylate 2,2-dioxide] | > 100000 nM | 1630 nM | – | 111 to 113 °C | > 100000 nM | 2590 nM
O=S1(=O)Oc2cc(OCc3cccc(F)c3)ccc2-c2ccccc21 [Compound 29, 3-((3-fluorobenzyl)oxy)dibenzo[c,e][1,2]oxathiine 6,6-dioxide] | > 100000 nM | 615 nM | 566 nM | 249 to 252 °C | > 100000 nM | –
O=S1(=O)C=Cc2ccc(OCc3cccc(F)c3)cc2O1 [Compound 15, 7-((3-Fluorobenzyl)oxy)benzo[e][1,2]oxathiine 2,2-dioxide] | > 100000 nM | 28.4 nM | 46 nM | 180 to 183 °C | > 100000 nM | –
O=[N+]([O-])c1ccc(COc2ccc3c(c2)OS(=O)(=O)C=C3)cc1 [Compound 16, 7-((4-Nitrobenzyl)oxy)benzo[e][1,2]oxathiine 2,2-dioxide] | > 100000 nM | 68.9 nM and 69.8 nM | 94.7 nM | 215 to 217 °C | > 100000 nM | –
CC1=CS(=O)(=O)Oc2cc(OCc3ccc([N+](=O)[O-])cc3)ccc21 [Compound 21, 7-((4-nitrobenzyl)oxy)-4-methylbenzo[e][1,2]oxathiine 2,2-dioxide] | > 100000 nM | 89.7 nM | 101 nM | 247 to 249 °C | > 100000 nM | –
COc1cccc(NC(=O)C2=Cc3ccccc3OS2(=O)=O)c1 [Compound 42, N-(3-methoxyphenyl)benzo[e][1,2]oxathiine-3-carboxamide 2,2-dioxide] | > 100000 nM | 5420 nM | – | 219 to 221 °C | > 100000 nM | 3380 nM
O=[N+]([O-])c1cccc(COc2ccc3c(c2)OS(=O)(=O)C=C3)c1 [Compound 17, 7-((3-nitrobenzyl)oxy)benzo[e][1,2]oxathiine 2,2-dioxide] | > 100000 nM | 40.2 nM | 77.5 nM | 200 to 202 °C | > 100000 nM | –
O=S1(=O)Oc2cc(O)ccc2-c2ccccc21 [Compound 26, 3-Hydroxydibenzo[c,e][1,2]oxathiine 6,6-dioxide] | 42600 nM | 559 nM | 414 nM | 181 to 182 °C | 9000 nM | –
O=S1(=O)C=Cc2ccc(OCc3ccc(F)cc3)cc2O1 [Compound 14, 7-((4-Fluorobenzyl)oxy)benzo[e][1,2]oxathiine 2,2-dioxide] | > 100000 nM | 22.9 nM | 19.2 nM | 197 to 199 °C | > 100000 nM | –
CC1=CS(=O)(=O)Oc2cc(OCc3ccccc3)ccc21 [Compound 18, 7-(benzyloxy)-4-methylbenzo[e][1,2]oxathiine 2,2-dioxide] | > 100000 nM | 49.8 nM | 8.6 nM | 174 to 175 °C | > 100000 nM | –
O=[N+]([O-])c1ccc(COc2ccc3c(c2)OS(=O)(=O)c2ccccc2-3)cc1 [Compound 30, 3-((4-nitrobenzyl)oxy)dibenzo[c,e][1,2]oxathiine 6,6-dioxide] | > 100000 nM | 965 nM | 1060 nM | 264 to 266 °C | > 100000 nM | –
COc1ccc2c(c1)OS(=O)(=O)C=C2C [Compound 10, 7-Methoxy-4-methylbenzo[e][1,2]oxathiine 2,2-dioxide] | > 100000 nM | 97.2 nM | 73.9 nM | 151 to 153 °C | 8810 nM | –
CC1=CS(=O)(=O)Oc2cc(O)ccc21 [Compound 12, 7-Hydroxy-4-methylbenzo[e][1,2]oxathiine 2,2-dioxide] | 9960 nM | 81.7 nM | 55 nM | 172 to 175 °C | 3860 nM | –
COc1ccc2c(c1)OS(=O)(=O)C(C(=O)O)=C2 [Compound 37, 7-methoxybenzo[e][1,2]oxathiine-3-carboxylic acid 2,2-dioxide] | 7140 nM | 854 nM | – | 150 to 151 °C | 728 nM | 408 nM
COc1ccc2c(c1)OS(=O)(=O)c1ccccc1-2 [Compound 25, 3-methoxydibenzo[c,e][1,2]oxathiine 6,6-dioxide] | > 100000 nM | 1290 nM | 966 nM | 180 to 183 °C | > 100000 nM | –
CC1=CS(=O)(=O)Oc2cc(OCc3cccc(F)c3)ccc21 [Compound 20, 7-((3-fluorobenzyl)oxy)-4-methylbenzo[e][1,2]oxathiine 2,2-dioxide] | > 100000 nM | 33.2 nM | 25.7 nM | 214 to 215 °C | > 100000 nM | –
O=S1(=O)C=Cc2ccc(OCc3ccccc3)cc2O1 [Compound 13, 7-(Benzyloxy)benzo[e][1,2]oxathiine 2,2-dioxide] | > 100000 nM | 55.6 nM | 28.3 nM | 165 to 167 °C | – | –
O=[N+]([O-])c1cccc(COc2ccc3c(c2)OS(=O)(=O)c2ccccc2-3)c1 [Compound 31, 3-((3-nitrobenzyl)oxy)dibenzo[c,e][1,2]oxathiine 6,6-dioxide] | > 100000 nM | 898 nM | 1370 nM | 248 to 251 °C | > 100000 nM | –
COc1ccc(NC(=O)C2=Cc3ccccc3OS2(=O)=O)cc1 [Compound 41, N-(4-methoxyphenyl)benzo[e][1,2]oxathiine-3-carboxamide 2,2-dioxide] | > 100000 nM | 8230 nM | – | 231 to 233 °C | > 100000 nM | 8550 nM
COc1ccc2c(c1)OS(=O)(=O)C=C2 [Compound 9, 7-Methoxybenzo[e][1,2]oxathiine 2,2-dioxide] | > 100000 nM | 74.9 nM | 61.4 nM | 111 to 112 °C | – | –
